Assay: Agonist activity at RORgammat in mouse CD4+ T cells assessed as induction of Th17 cells differentiation by measuring increase in IL17 production measured after 4 days by intracellular staining based flow cytometry

- EC50: 37 nM
Structure (SMILES): CCCN(Cc1ccc(NC(=O)Cc2ccc(S(C)(=O)=O)cc2)cc1Cl)CC1CCCCC1

Reference: BindingDB's records for doi:10.1016/j.ejmech.2021.113704 (Fudan University, 2021)
